From US20210045385A1, “PYRIDAZINONE-SUBSTITUTED KETOXIMES AS HERBICIDES” (FMC Corporation, priority 2018, published 2021)

What was measured:
Type in all cases: in vivo
[1] = test system: barnyardgrass (Echinochloa crus-galli); test: Test D flooded paddy test, visual plant response rating; conditions: 250 g ai/ha, scale 0 to 100 (0 no effect, 100 complete control), 13 to 15 d
Method: (§1) Plant species in the flooded paddy test selected from rice (Oryza sativa), sedge umbrella (small-flower umbrella sedge, Cyperus difformis) duck salad (Heteranthera limosa), and barnyardgrass (Echinochloa crus-galli) were grown to the 2-leaf stage for testing. At time of treatment, test pots were flooded to 3 cm above the soil surface, treated by application of test compounds directly to the paddy water, and then maintained at that water depth for the duration of the test. Treated plants and controls were maintained in a greenhouse for 13 to 15 d, after which time all species were compared to controls and visually evaluated. Plant response ratings, summarized in Table D, are based on a scale of 0 to 100 where 0 is no effect and 100 is complete control. A dash (-) response means no test result.

[2] = test system: duck salad (Heteranthera limosa); test: as above; conditions: 250 g ai/ha, scale 0 to 100 (0 no effect, 100 complete control), 13 to 15 d
Method: as §1

rice (Oryza sativa) = test: as above; conditions: 250 g ai/ha, scale 0 to 100 (0 no effect, 100 complete control), 13 to 15 d
Method: as §1

[3] = test system: sedge umbrella (small-flower umbrella sedge, Cyperus difformis); test: as above; conditions: 250 g ai/ha, scale 0 to 100 (0 no effect, 100 complete control), 13 to 15 d
Method: as §1

corn (Zea mays) = test: Test C postemergence, visual plant response rating
From the text: (§2) Seeds of plant species selected from barnyardgrass (Echinochloa crus-galli), kochia (Bassia scoparia), ragweed (common ragweed, Ambrosia artemisiifolia), Italian ryegrass (Lolium mutiflorum), foxtail, giant (giant foxtail, Setaria faberi), foxtail, green (green foxtail, Setaria viridis), and pigweed (Amaranthus retroflexus) were planted into a blend of loam soil and sand and treated preemergence with a directed soil spray using test chemicals formulated in anon-phytotoxic solvent mixture which included a surfactant.
(§3) At the same time, plants selected from these weed species and also wheat (Triticum aestivum), corn (Zea mays), blackgrass (Alopecurus myosuroides), and galium (catchweed bedstraw, Galium aparine) were planted in pots containing the same blend of loam soil and sand and treated with post emergence applications of test chemicals formulated in the same manner. Plants ranged in height from 2 to 10 cm and were in the one- to two-leaf stage for the postemergence treatment. Treated plants and untreated controls were maintained in a greenhouse for approximately 10 d, after which time all treated plants were compared to untreated controls and visually evaluated for injury. Plant response ratings, summarized in Table C, are based on a 0 to 100 scale where 0 is no effect and 100 is complete control. A dash (-)response means no test result.

[4] = test system: Italian ryegrass (Lolium mutiflorum); test: Test C postemergence, visual plant response rating
From the text: as §2, §3

[5] = test system: blackgrass (Alopecurus myosuroides); test: Test C postemergence, visual plant response rating
From the text: as §2, §3

[6] = test system: barnyardgrass (Echinochloa crus-galli); test: Test C postemergence, visual plant response rating
From the text: as §2, §3

[7] = test system: galium (catchweed bedstraw, Galium aparine); test: Test C postemergence, visual plant response rating
From the text: as §2, §3

[8] = test system: wheat (Triticum aestivum); test: Test C postemergence, visual plant response rating
From the text: as §2, §3

kochia (Bassia scoparia) [9] = test: Test C postemergence, visual plant response rating
From the text: as §2, §3

[10] = test system: ragweed (common ragweed, Ambrosia artemisiifolia); test: Test C postemergence, visual plant response rating
From the text: as §2, §3

[11] = test system: foxtail, giant (giant foxtail, Setaria faberi); test: Test C postemergence, visual plant response rating
From the text: as §2, §3

[12] = test system: pigweed (Amaranthus retroflexus); test: Test C postemergence, visual plant response rating
From the text: as §2, §3

[13] = test system: Italian ryegrass (Lolium mutiflorum); test: Test C preemergence, visual plant response rating
From the text: as §2, §3

[14] = test system: barnyardgrass (Echinochloa crus-galli); test: Test C preemergence, visual plant response rating
From the text: as §2, §3

kochia (Bassia scoparia) [15] = test: Test C preemergence, visual plant response rating
From the text: as §2, §3

[16] = test system: foxtail, giant (giant foxtail, Setaria faberi); test: Test C preemergence, visual plant response rating
From the text: as §2, §3

[17] = test system: pigweed (Amaranthus retroflexus); test: Test C preemergence, visual plant response rating
From the text: as §2, §3

[18] = Test C, postemergence, 125 g ai/ha
[19] = Test C, 31 g ai/ha, 0 is no effect, 100 is complete control
[20] = Test C, 125 g ai/ha, 0 is no effect, 100 is complete control

Row | Structure (SMILES) | Plant response rating, Barnyardgrass (Flood) [1] | Plant response rating, Ducksalad (Flood) [2] | Plant response rating, Rice (Flood) (rice (Oryza sativa)) | Plant response rating, Sedge, Umbrella (Flood) [3] | Corn plant response rating (0 to 100 scale) (corn (Zea mays); Postemergence, 31 g ai/ha) | Corn plant response rating (0 to 100 scale) (corn (Zea mays); [18]) | Ryegrass, Italian plant response rating (0 to 100 scale) ([4]; Postemergence, 31 g ai/ha) | Ryegrass, Italian plant response rating (0 to 100 scale) [4, 18] | Blackgrass plant response rating (0 to 100 scale) ([5]; Postemergence, 31 g ai/ha) | Blackgrass plant response rating (0 to 100 scale) [5, 18] | Barnyardgrass plant response rating (0 to 100 scale) ([6]; Postemergence, 31 g ai/ha) | Barnyardgrass plant response rating (0 to 100 scale) [6, 18] | Galium plant response rating (0 to 100 scale) ([7]; Postemergence, 31 g ai/ha) | Galium plant response rating (0 to 100 scale) [7, 18] | Wheat plant response rating (0 to 100 scale) ([8]; Postemergence, 31 g ai/ha) | Wheat plant response rating (0 to 100 scale) [8, 18] | Kochia plant response rating (0 to 100 scale) (kochia (Bassia scoparia) [9]; Postemergence, 31 g ai/ha) | Kochia plant response rating (0 to 100 scale) (kochia (Bassia scoparia) [9]; [18]) | Ragweed plant response rating (0 to 100 scale) ([10]; Postemergence, 31 g ai/ha) | Ragweed plant response rating (0 to 100 scale) [10, 18] | further results
1 | C#CCO/N=C(\c1cc(Cl)cc(Cl)c1Cl)c1c(O)c(C)nn(C)c1=O [Compound 184] | 0 | 0 | 0 | 0 | 0 | 10 | 0 | 80 | 0 | 0 | 50 | 60 | 60 | 90 | 0 | 0 | 10 | 10 | 60 | 100 | Foxtail, Giant plant response rating (0 to 100 scale) ([11]; Postemergence, 31 g ai/ha): 60; Foxtail, Giant plant response rating (0 to 100 scale) [11, 18]: 80; Pigweed plant response rating (0 to 100 scale) ([12]; Postemergence, 31 g ai/ha): 10; Pigweed plant response rating (0 to 100 scale) [12, 18]: 20; Ryegrass, Italian plant response rating (0 to 100 scale) ([13]; 125 g ai/ha): 100; Ryegrass, Italian plant response rating (0 to 100 scale) [13, 19]: 0; Barnyardgrass plant response rating (0 to 100 scale) ([14]; 125 g ai/ha): 90; Barnyardgrass plant response rating (0 to 100 scale) [14, 19]: 0; Kochia plant response rating (0 to 100 scale) (kochia (Bassia scoparia) [15]; 125 g ai/ha): 0; Kochia plant response rating (0 to 100 scale) (kochia (Bassia scoparia) [15]; [19]): 0; Foxtail, Giant plant response rating (0 to 100 scale) ([16]; 125 g ai/ha): 100; Foxtail, Giant plant response rating (0 to 100 scale) [16, 19]: 60; Pigweed plant response rating (0 to 100 scale) ([17]; 125 g ai/ha): 60; Pigweed plant response rating (0 to 100 scale) [17, 19]: 50
2 | C#CCO/N=C(/c1c(O)c(Cl)nn(C)c1=O)c1ccc(F)c2ccccc12 [Compound 205] | 0 | 0 | 0 | 0 | 0 | 40 | 70 | 100 | 20 | 80 | 70 | 90 | 80 | 90 | 20 | 70 | 60 | 70 | 100 | 100 | Foxtail, Giant plant response rating (0 to 100 scale) ([11]; Postemergence, 31 g ai/ha): 80; Foxtail, Giant plant response rating (0 to 100 scale) [11, 18]: 100; Pigweed plant response rating (0 to 100 scale) ([12]; Postemergence, 31 g ai/ha): 90; Pigweed plant response rating (0 to 100 scale) [12, 18]: 100; Ryegrass, Italian plant response rating (0 to 100 scale) [13, 19]: 20; Ryegrass, Italian plant response rating (0 to 100 scale) [13, 20]: 100; Barnyardgrass plant response rating (0 to 100 scale) [14, 19]: 70; Barnyardgrass plant response rating (0 to 100 scale) [14, 20]: 100; Kochia plant response rating (0 to 100 scale) (kochia (Bassia scoparia) [15]; [19]): 0; Kochia plant response rating (0 to 100 scale) (kochia (Bassia scoparia) [15]; [20]): 70; Foxtail, Giant plant response rating (0 to 100 scale) [16, 19]: 80; Foxtail, Giant plant response rating (0 to 100 scale) [16, 20]: 100; Pigweed plant response rating (0 to 100 scale) [17, 19]: 80; Pigweed plant response rating (0 to 100 scale) [17, 20]: 100
3 | C#CCO/N=C(\c1c(O)c(Cl)nn(C)c1=O)c1ccc(F)c2ccccc12 [Compound 220] | 0 | 0 | 0 | 0 | 10 | 40 | 70 | 100 | 30 | 80 | 40 | 80 | 70 | 100 | 40 | 90 | 50 | 80 | 60 | 100 | Foxtail, Giant plant response rating (0 to 100 scale) ([11]; Postemergence, 31 g ai/ha): 60; Foxtail, Giant plant response rating (0 to 100 scale) [11, 18]: 100; Pigweed plant response rating (0 to 100 scale) ([12]; Postemergence, 31 g ai/ha): 80; Pigweed plant response rating (0 to 100 scale) [12, 18]: 100; Ryegrass, Italian plant response rating (0 to 100 scale) [13, 19]: 30; Ryegrass, Italian plant response rating (0 to 100 scale) [13, 20]: 100; Barnyardgrass plant response rating (0 to 100 scale) [14, 19]: 0; Barnyardgrass plant response rating (0 to 100 scale) [14, 20]: 90; Kochia plant response rating (0 to 100 scale) (kochia (Bassia scoparia) [15]; [19]): 0; Kochia plant response rating (0 to 100 scale) (kochia (Bassia scoparia) [15]; [20]): 60; Foxtail, Giant plant response rating (0 to 100 scale) [16, 19]: 20; Foxtail, Giant plant response rating (0 to 100 scale) [16, 20]: 100; Pigweed plant response rating (0 to 100 scale) [17, 19]: 30; Pigweed plant response rating (0 to 100 scale) [17, 20]: 100
